5 sequences from patent publication US20230143215A1 (priority 2020, published 2023) can be followed below.

What all share (assay type): cell-based, human
Assay [1] has as its system autologous T cells of healthy donors. More on the design: key: +: positive response.
Assay [2] shares this test system. More on the design: key: +: positive response. This is another data set of the same source.
Assay [3] shares this test system. More on the design: key: +: positive response. This is another data set of the same source.
The test system is the same in assay [4]. Also on record: key: +: positive response. This is another data set of the same source.
For assay [5], the system named is PBMC from SARS-CoV-2 convalescent donors.

In the case of ALNTLVKQLSSNFGAISSVLNDILSRLDKV [SLP 9], the ELISpot result in assay [1] is recorded as “+”. Further, in assay [2], the ELISA result was “+”. Further, the Proliferation result in assay [3] is listed as “+”. The “positive response detected on one time point with two different assays” value in assay [4] is recorded as “+”.

Turning to GNGGDAALALLLLDRLNQLESKMSGKGQ [SLP 39], the ELISpot result in assay [1] is on record as “+”. For the same sequence, the ELISA result in assay [2] is “+”. In assay [3], the Proliferation entry was “+”. Further, in assay [4], the “positive response detected on one time point with two different assays” value is listed as “+” and the “positive response detected on two time points with the same assay” value is given as “+”.

With IRQGTDYKHWPQIAQFAPSASAFFG [SLP 46], in assay [5], the “IFNγ ELISpot response” value is listed as “high responses” and the “immunogenicity compared to the other SLPs” value is “remarkably immunogenic”.

Take LFARTRSMWSFNPETNILLNV [SLP 19]: in assay [2], the ELISA entry is “+”. Further, the Proliferation entry in assay [3] is “+”. In assay [4], the “positive response detected on one time point with two different assays” value was “+” and the “positive response detected on two time points with the same assay” value was “+”. Moreover, in assay [5], the “IFNγ ELISpot response” value was “high responses”.

On to “PLVDLPIGINITRFQTLLALHRSYLTPGDSSSG [SLP 32]”, for which, in assay [2], the ELISA entry is given as “+”. The Proliferation entry in assay [3] is “+”. Besides, in assay [4], the “positive response detected on two time points with the same assay” value is “+”.
